# Key:
# [1] = test system: patients with negative symptoms of schizophrenia; assay: Study #1 (MIN-101C03): CGI-S and CGI-I; assay type: in vivo, human; conditions: Week 12 DB, ITT
# Experimental: (§1) The CGI-S is a clinician-rated scale that is designed to rate the severity of the patient's illness at the time of assessment, including knowledge of the patient's history, psychosocial circumstances, symptoms, behavior, and the impact of the symptoms on the patient's ability to function relative to the clinician's past experience with patients who have the same diagnosis and similar improvement with treatment. Considering total clinical experience, a patient is assessed on severity of mental illness at the time of rating, where 1=normal (not at all ill); 2=borderline mentally ill; 3=mildly ill; 4=moderately ill; 5=markedly ill; 6=severely ill; or 7=extremely ill.
# (§2) The CGI-S and CGI-I were assessed at the timepoints described in Table 7. The CGI-S and CGI-I were exploratory endpoints in Studies MIN-101C03 and MIN-101C07.
# (§3) Phase 2b Study #1 (also referred to herein as “MIN-101C03”) was a Phase 2b, double-blind (“DB”), placebo-controlled, randomized, multicenter 12-week study to evaluate the efficacy, safety, and tolerability of Roluperidone in patients ≥18 years to ≤60 years with negative symptoms of schizophrenia, followed by a 24-week open-label (“OL”) extension. The primary objective of the study was to evaluate the efficacy of Roluperidone compared to placebo in improving the negative symptoms of schizophrenia as measured by the change from Baseline in the PANSS negative factor score of the PSM (“PANSS PSM”) over 12 weeks of treatment.
# (§4) The study consisted of a pretreatment screening period of up to 28 days (including washout), a 12-week, DB, placebo-controlled period, and a 24-week OL period. Eligible patients (who were symptomatically stable for at least 3 months and had scores of at least 20 on the PANSS negative subscale score) were randomized in a 1:1:1 ratio to receive oral Roluperidone (a modified-release, “MR”, formulation) 32 mg QD, Roluperidone 64 mg QD, or placebo for 12 weeks. […] During the 24-week, OL treatment extension period, patients who were initially randomized to Roluperidone 32 mg or 64 mg continued on the same dose, while patients who were initially randomized to placebo crossed over to Roluperidone 32 mg or 64 mg in a 1:1 ratio.
# [2] = test system: patients with negative symptoms of schizophrenia; assay: Study #1 (MIN-101C03): Brief Negative Symptoms Scale (BNSS); assay type: in vivo, human; conditions: Week 12 DB, ITT
# Source text: As used herein, “BNSS” is the Brief Negative Symptom Scale. “BNSS” is 13-item instrument designed to measure negative symptoms, specifically: blunted affect, alogia, asociality, anhedonia, and avolition (Kirkpatrick, et al., “The Brief Negative Symptom Scale: Psychometric Properties,” Schizophr. Bull., 2011, 37(2), 300-5.).
# as §3, §4
# [3] = test system: patients with negative symptoms of schizophrenia; assay: Study #1 (MIN-101C03): Calgary Depression Scale for Schizophrenia; assay type: in vivo, human; conditions: Week 12 DB, ITT
# Source text: as §3, §4
# [4] = test system: patients with negative symptoms of schizophrenia; assay: Study #2 (MIN-101C07): CGI-S and CGI-I; assay type: in vivo, human; conditions: Week 12 DB, ITT
# Experimental: as §1, §2
# Study #2 (also referred to as “MIN101C07”) was a Phase 3, randomized, DB, placebo-controlled, parallel-group 12-week study to evaluate the efficacy and safety of Roluperidone in patients ≥18 years to ≤55 years with negative symptoms of schizophrenia, followed by a 40-week OL extension. The study consisted of a pretreatment screening period of up to 28 days (including an antipsychotic medication washout period), a 12-week, DB, placebo-controlled period, and a 40-week OL period. Eligible patients (with moderate to severe negative symptoms of schizophrenia and stable positive symptoms but without severe symptoms of suspiciousness, agitation, hostility, uncooperativeness, or poor impulse control) were randomized 1:1:1 to receive Roluperidone 32 mg QD, Roluperidone 64 mg QD (GR01/B formulation, see U.S. Pat. No. 11,464,744), or placebo, orally, for 12 weeks. […] During the 40-week OL treatment extension, patients who were initially randomized to Roluperidone 32 mg or 64 mg continued treatment with the same dose, while patients who were initially randomized to placebo crossed over to Roluperidone 32 mg or 64 mg in a 1:1 ratio.
# α1A-adrenergic = target: T1, α1A-adrenergic (Homo sapiens, UniProt P35348); conditions: background statement; cited from earlier work
# T1 sequence (P35348 1-466): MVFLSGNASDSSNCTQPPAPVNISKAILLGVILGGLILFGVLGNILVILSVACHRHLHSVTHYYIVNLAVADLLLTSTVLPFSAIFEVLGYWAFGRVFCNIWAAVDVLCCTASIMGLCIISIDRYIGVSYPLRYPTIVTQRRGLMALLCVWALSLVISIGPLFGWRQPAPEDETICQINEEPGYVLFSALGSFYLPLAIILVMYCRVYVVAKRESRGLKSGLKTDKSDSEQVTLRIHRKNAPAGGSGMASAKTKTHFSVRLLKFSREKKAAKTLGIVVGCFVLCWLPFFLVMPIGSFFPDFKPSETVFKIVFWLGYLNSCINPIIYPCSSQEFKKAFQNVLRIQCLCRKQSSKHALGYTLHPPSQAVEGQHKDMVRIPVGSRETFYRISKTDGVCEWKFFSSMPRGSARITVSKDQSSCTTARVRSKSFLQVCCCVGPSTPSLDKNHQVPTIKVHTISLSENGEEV
substance,measurement,setting,value
"1H-Isoindol-1-one,2-[ [1-[2-(4-fluorophenyl)-2-oxoethyl]-4-piperidinyl]methyl]-2,3-dihydro-, hydrochloride, hydrate (1:1:2) [Roluperidone]",Change from Baseline: Clinical Global Impression of Severity (observed change),[1]; 32 mg QD,−0.40
same,Effect Size vs Placebo: Clinical Global Impression of Improvement,[1]; 32 mg QD,0.33
same,Effect Size vs Placebo: Clinical Global Impression of Severity,[1]; 32 mg QD,0.35
same,Change from Baseline: Clinical Global Impression of Severity (observed change),[1]; 64 mg QD,−0.40 (0.1)
same,Effect Size vs Placebo: Clinical Global Impression of Improvement,[1]; 64 mg QD,0.57
same,Effect Size vs Placebo: Clinical Global Impression of Severity,[1]; 64 mg QD,0.43
same,Change from Baseline LS Mean: Brief Negative Symptoms Scale Total Score,[2]; 32 mg QD,−5.44
same,Effect Size vs Placebo: Brief Negative Symptoms Scale Total Score,[2]; 32 mg QD,0.33
same,Change from Baseline LS Mean: Brief Negative Symptoms Scale Total Score,[2]; 64 mg QD,−6.94
same,Effect Size vs Placebo: Brief Negative Symptoms Scale Total Score,[2]; 64 mg QD,0.56
same,Change from Baseline LS Mean: Calgary Depression Scale for Schizophrenia,[3]; 32 mg QD,−0.37
same,Effect Size vs Placebo: Calgary Depression Scale for Schizophrenia,[3]; 32 mg QD,0.25
same,Change from Baseline LS Mean: Calgary Depression Scale for Schizophrenia,[3]; 64 mg QD,−0.71
same,Effect Size vs Placebo: Calgary Depression Scale for Schizophrenia,[3]; 64 mg QD,0.46
same,Change from Baseline LS Mean: Clinical Global Impression of Severity,[4]; 32 mg QD,−0.4
same,"Clinical Global Impression of Improvement, LS Mean (observed data, MMRM)",[4]; 32 mg QD,3.4
same,Effect Size (Cohen's d) vs Placebo: Clinical Global Impression of Improvement,[4]; 32 mg QD,−0.12
same,Effect Size (Cohen's d) vs Placebo: Clinical Global Impression of Severity,[4]; 32 mg QD,0.12
same,Change from Baseline LS Mean: Clinical Global Impression of Severity,[4]; 64 mg QD,−0.5
same,"Clinical Global Impression of Improvement, LS Mean (observed data, MMRM)",[4]; 64 mg QD,3.3
same,Effect Size (Cohen's d) vs Placebo: Clinical Global Impression of Improvement,[4]; 64 mg QD,0.02
same,Effect Size (Cohen's d) vs Placebo: Clinical Global Impression of Severity,[4]; 64 mg QD,0.24
same,Antagonistic activity,α1A-adrenergic,antagonistic activities
